Test [1] has as its target T1, hCB2 (Homo sapiens, UniProt P34972).
T1 construct: expressed in transfected cells; host or cells: HEK Flp-in
Briefly: Radioligand competition binding with [3H]-CP 55,940 on hCB2-expressing HEK membranes. Conditions: for inhibition at 10 µM: 1 h, read-out: CB2 binding extent at 10 μM (%) (±SEM).

The target of test [2] is T2, hCB1 (Homo sapiens, UniProt P21554).
T2 construct: expressed in transfected cells; host or cells: HEK (membranes)
The experiment in a line: Radioligand competition binding screen with [3H]-CP 55,940 on hCB1-expressing HEK membranes. The following applies: for CB2 selectivity over CB1 (in words): from CB1 binding at 10 μM versus CB2 affinity.

The target in test [3] is T1, hCB2. Briefly: hCB2 internalisation assay (immunocytochemistry of surface receptor), HEK Flp-in hCB2 cells. Conditions: for logR [log(τ/KA)] (±SEM) Internalisation: operational model transduction ratio. It is filed as cell-based. Set-up: Emax: dose or concentration left out as unconfirmed.
The target in test [4] is T1, hCB2. Briefly: Real-time CAMYEL BRET cAMP assay, forskolin-stimulated HEK Flp-in hCB2 cells. It is filed as cell-based. The following applies: for cAMP (5 min) Emax (±SEM): change relative to forskolin alone (100%), vehicle 0%, 10 and 14 approximate; for logR [log(τ/KA)] (±SEM) cAMP: operational model transduction ratio. As to the method:
Cellular cAMP levels were measured using a real-time BRET biosensor (CAMYEL) as previously described ([Cawston et al., 2013]). In brief, cells were seeded in 10 cm dishes one day prior to transfection. The medium was then replaced and cells transfected with 5 μg of pcDNA3L-His-CAMYEL (ATCC, Manassas, VA, United States) using linear PEI (MW 25 kDa; Polysciences, Warrington, PA, United States) with a DNA:PEI ratio of 1:6. Approximately 24 h after transfection, cells were trypsinised and re-plated in poly-D-lysine treated white 96-well plates (Corning), at a density of 5–6 × 10^4 cells per well. For experiments involving pertussis toxin (PTX; Sigma-Aldrich) pre-treatment, cells were seeded in half the usual volume of medium, and then ∼5 h later, 2× concentrated PTX or vehicle (50% glycerol, […] Tris–HCl pH 7.5, 10 mM glycine, 500 mM NaCl) were prepared in medium and added to the existing plating medium (giving rise to a final PTX concentration of 100 ng mL^-1). Approximately 24 h after plating (or 16–20 h after applying PTX/vehicle in experiments involving PTX treatment), cells were washed once with Hank’s Balanced Salt Solution (HBSS, Thermo Fisher Scientific, catalogue #14025-134), and then equilibrated for 30 min in HBSS supplemented with 1 mg mL^-1 BSA. Coelenterazine h (final concentration 5 μM; NanoLight Technologies, Pinetop, AZ, United States) was added to each well and incubated for 5 min. Forskolin was added (final concentration 5 μM) and incubated for 6 min (allowing enough time for the induced cAMP increase to plateau), prior to vehicle/drug addition. All drugs and reagents were prepared in HBSS supplemented with 1 mg mL^-1 BSA. SR 144528 was a generous gift from Roche (Basel, Switzerland).
Assays were carried out in technical duplicate. Emissions were detected at 460 nm (Rluc) and 535 nm (YFP) with either a LUMIstar® Omega luminometer (BMG Labtech, Ortenberg, Germany) or CLARIOstar® (BMG Labtech). BRET ratios (535 nm emissions/460 nm emissions, where an increase in ratio corresponds to a decrease in cAMP) were normalised to pre-forskolin reads (i.e., with coelenterazine h present) to remove any variability present prior to addition of forskolin and drug/vehicle. A Lowess curve (GraphPad Prism) was fitted to individual technical replicates within an assay so that cAMP signalling data could be extrapolated from any time point as opposed to only those that were empirically measured (typically every 30–60 s). Data were normalised to matched vehicle (0%) and forskolin (100%) treatments, allowing compilation of data from independent experiments.

For test [5], the system named is HEK Flp-in wt cells. Briefly: CAMYEL cAMP assay in HEK Flp-in wt cells (non-hCB2-mediated effects). The class given is cell-based, human.
For test [6], the target named is T1, hCB2. Briefly: pERK AlphaLISA assay, HEK Flp-in hCB2 cells. The class given is cell-based. Conditions: for logR [log(τ/KA)] (±SEM) pERK: operational model transduction ratio; for Time of maximal pERK response: time course experiment; for Emax: read-out: pERK (4 min) Emax (±SEM).
For test [7], the target named is T1, hCB2. The experiment in a line: Comparison of efficacy/potency and operational-model bias analysis between hCB2 pathways, reference CP 55,940. The class given is cell-based. Conditions: for Internalisation – pERK Bias factor / cAMP – internalisation Bias factor / cAMP – pERK Bias factor: 10^ΔΔlogR; for Internalisation – pERK Bias factor / cAMP – internalisation Bias factor / cAMP – pERK Bias factor / Between-pathway signalling bias (in words): relative to CP 55,940; for Internalisation – pERK ΔΔlogR (±SEM) / cAMP – internalisation ΔΔlogR (±SEM) / cAMP – pERK ΔΔlogR (±SEM): relative to reference ligand CP 55,940.

Test [8] deals with CB2. Set-up: method as in Yrjölä et al., 2015. Conditions: ref Yrjölä et al., 2015; cited from earlier work.
[9] abbreviates: 10 μM compound, displacement of 0.5 nM [3H]-CP 55,940.
Where [10] appears, read: heterologous competition vs [3H]-CP 55,940, read-out: CB2 pKi (±SEM) (converted).
Setting [11] is: 5 min post-drug, 5 μM forskolin, 10 and 14 approximate (non-hCB2-mediated effects), read-out: cAMP (5 min) pEC50 (±SEM) (converted).
The mark [12] stands for this setting: 5 min post-drug, 5 μM forskolin.
The mark [13] stands for this setting: 4 min stimulation, 14 approximate (low potency), read-out: pERK (4 min) pEC50 (±SEM) (converted).

Data on three compounds can be found in PMC6256112, “Cannabinoid Receptor 2 Signalling Bias Elicited by 2,4,6-Trisubstituted 1,3,5-Triazines” (Frontiers in Pharmacology, 2018).

Where two headings read alike, the source gives them in different places. Marks after values point to notes of the source that are not given here.

T1 sequence (P34972 whole entry): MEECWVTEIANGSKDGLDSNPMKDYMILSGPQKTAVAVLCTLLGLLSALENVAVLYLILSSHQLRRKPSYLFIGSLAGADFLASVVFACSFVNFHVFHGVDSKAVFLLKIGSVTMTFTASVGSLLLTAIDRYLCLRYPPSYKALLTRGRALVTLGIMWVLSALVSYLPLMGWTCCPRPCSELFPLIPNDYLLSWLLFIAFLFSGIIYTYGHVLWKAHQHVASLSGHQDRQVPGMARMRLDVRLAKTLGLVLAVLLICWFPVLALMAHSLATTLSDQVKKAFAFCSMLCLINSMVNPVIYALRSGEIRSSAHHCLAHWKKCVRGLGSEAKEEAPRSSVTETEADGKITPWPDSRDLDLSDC
T2 sequence (P21554 whole entry): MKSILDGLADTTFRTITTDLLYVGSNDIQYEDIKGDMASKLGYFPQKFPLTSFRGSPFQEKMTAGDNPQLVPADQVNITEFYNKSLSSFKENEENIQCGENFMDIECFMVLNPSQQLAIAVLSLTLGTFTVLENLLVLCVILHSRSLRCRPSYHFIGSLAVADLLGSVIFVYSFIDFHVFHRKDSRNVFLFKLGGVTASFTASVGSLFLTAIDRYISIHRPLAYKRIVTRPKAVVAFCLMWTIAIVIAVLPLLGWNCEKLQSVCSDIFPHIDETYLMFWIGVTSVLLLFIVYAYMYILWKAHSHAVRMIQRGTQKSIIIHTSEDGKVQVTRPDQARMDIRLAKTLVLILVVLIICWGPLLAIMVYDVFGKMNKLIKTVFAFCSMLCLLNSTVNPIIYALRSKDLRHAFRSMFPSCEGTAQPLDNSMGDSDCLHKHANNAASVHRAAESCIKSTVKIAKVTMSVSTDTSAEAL

As for `CCOc1nc(NC23CC4CC(CC(C4)C2)C3)nc(N2CCN(CCF)CC2)n1` [Compound 16, N-(adamantan-1-yl)-4-et hoxy-6-(4-(2-fluoroethyl)piperazin-1-yl)-1,3,5-triazin-2-amine], the inhibition at 10 µM in test [1] (setting [9]) amounted to 95.6%. In test [1] (setting [10]), the Ki was 1.62 nM. The “CB2 selectivity over CB1 (in words)” value in test [2] is listed as “somewhat CB2-selective”. In test [3] (1 h stimulation), the “Behaviour in internalisation pathway (in words)” value is given as “significantly less efficacious” and the EC50 was 1.2 nM. The “logR [log(τ/KA)] (±SEM) Internalisation” value in test [3] was 8.90 (0.19). The EC50 in test [4] (setting [11]) was 2.82 nM. Further, the “cAMP (5 min) Emax (±SEM)” value in test [4] (setting [12]) is on record as “–35.6 (2.2) %”. For the same compound, the “logR [log(τ/KA)] (±SEM) cAMP” value in test [4] was 8.52 (0.19). Further, the “Non-hCB2-mediated effects on cAMP (in words)” value in test [5] (HEK Flp-in wt) is given as “most pronounced effects”. Also, the EC50 in test [6] (setting [13]) is 12.3 nM. Moreover, in test [6], the “logR [log(τ/KA)] (±SEM) pERK” value is on record as 7.84 (0.07) and the “Time of maximal pERK response” value turned out to be 4 min. In test [7], the “Efficacy relative to maximal efficacy measured across all compounds, all three pathways” value is recorded as approximately 80%; the “Internalisation – pERK Bias factor” value was 2.2; the “cAMP – internalisation Bias factor” value is 0.7; the “cAMP – pERK Bias factor” value was 1.6. Further, in test [7], the “Between-pathway signalling bias (in words)” value is given as “did not demonstrate any indication of between-pathway bias”, the “Internalisation – pERK ΔΔlogR (±SEM)” value is listed as 0.35 (0.13), the “cAMP – internalisation ΔΔlogR (±SEM)” value is “–0.14 (0.22)” and the “cAMP – pERK ΔΔlogR (±SEM)” value was 0.21 (0.20). In addition, in test [7] (read-out: Efficacy relative to maximal efficacy measured across all compounds, all three pathways, internalisation, cAMP and pERK), the Emax is 75 to 80%. In addition, in test [8], the “Functional GTPγS selectivity for CB2 versus CB1” value is on record as 1000 to 10,000 fold and the “GTPγS activity, % of maximum measured activity” value is listed as approximately 70%.
Turning to `CCOc1nc(NC23CC4CC(CC(C4)C2)C3)nc(N2CCN(C)CC2)n1` [Compound 15, N-(Adamantan-1-yl)-4-ethoxy-6-(4-methylpiperazin-1-yl)-1,3,5-triazin-2-amine], in test [1], the Ki was 4.27 nM and the inhibition at 10 µM was determined as 92.9%. Also, the “CB2 selectivity over CB1 (in words)” value in test [2] is listed as “somewhat CB2-selective”. For the same compound, in test [3], the EC50 is 1.23 nM and the “logR [log(τ/KA)] (±SEM) Internalisation” value is listed as 8.92 (0.09). Also, the Emax in test [3] (read-out: Internalisation (1 h) Emax (±SEM)) was -56.5%. Moreover, in test [4], the EC50 was 7.94 nM and the “logR [log(τ/KA)] (±SEM) cAMP” value is 8.12 (0.09). The Emax in test [4] (read-out: cAMP (5 min) Emax (±SEM)) is -39.6%. In test [6], the EC50 was 35.5 nM, the “logR [log(τ/KA)] (±SEM) pERK” value is listed as 7.45 (0.10), the Emax turned out to be 9.96% and the “Time of maximal pERK response” value turned out to be 4 min. Moreover, in test [6] (4 min), the “Behaviour in pERK pathway (in words)” value was “equivalent efficacies to CP 55,940”. Moreover, in test [7], the “Internalisation – pERK Bias factor” value is reported as 5.7, the “cAMP – internalisation Bias factor” value worked out at 0.3, the “cAMP – pERK Bias factor” value came out at 1.6 and the “Between-pathway signalling bias (in words)” value is listed as “biased towards internalisation”. In test [7], the “Internalisation – pERK ΔΔlogR (±SEM)” value is on record as 0.76 (0.15)*, the “cAMP – internalisation ΔΔlogR (±SEM)” value is given as “–0.56 (0.15)” and the “cAMP – pERK ΔΔlogR (±SEM)” value is listed as 0.20 (0.13). In addition, in test [8], the “Functional GTPγS selectivity for CB2 versus CB1” value is reported as 1000 to 10,000 fold and the “GTPγS functional behaviour (in words)” value was “full agonist”.
Consider `CCOc1nc(NC23CC4CC(CC(C4)C2)C3)nc(N2CCN(CCOCCOCCNC(=O)OC(C)(C)C)CC2)n1` [Compound 10, tert-Butyl N-(2-(2-(2-(4-(4-((Adamantan-1-yl)Amino)-6-Ethoxy-1,3,5-Triazin-2-yl)Piperazin-1-yl)Ethoxy) Ethoxy)Ethyl)Carbamate], for which, in test [1] (setting [9]), the inhibition at 10 µM was 91.8%. In addition, in test [1] (compared to methylpiperazinyl-15), the “Reduction in hCB2 binding affinity compared to 15” value is 2–3 log units. Besides, in test [1] (setting [10]), the Ki is 661 nM. Moreover, the “CB1 binding extent at 10 μM (%) (±SEM)” value in test [2] (10 μM compound, displacement of 0.75 nM [3H]-CP 55,940) is 16.7 (7.8) %. For the same compound, the “CB2 selectivity over CB1 (in words)” value in test [2] is given as “likely also CB2-selective”. Moreover, in test [3] (1 h stimulation), the EC50 was 89.1 nM. Further, the “logR [log(τ/KA)] (±SEM) Internalisation” value in test [3] was 7.09 (0.10). The “Behaviour in cAMP pathway (in words)” value in test [4] (5 μM forskolin) is given as “partial agonists”. The EC50 in test [4] (setting [11]) is 105 nM. In addition, the “cAMP (5 min) Emax (±SEM)” value in test [4] (setting [12]) is reported as “–33.0 (0.9)^Δ %”. Besides, in test [4], the “logR [log(τ/KA)] (±SEM) cAMP” value was 6.90 (0.10). In addition, the “Non-hCB2-mediated cAMP effects: fold less potent than cAMP inhibition in hCB2-expressing cells” value in test [5] (HEK Flp-in wt versus HEK Flp-in hCB2) was approximately 23 fold. In addition, the “Behaviour in pERK pathway (in words)” value in test [6] (4 min) is given as “equivalent efficacies to CP 55,940”. Moreover, in test [6] (4 min, response above vehicle, normalised to U0126 (0%) and PMA (100%), for 14 efficacy at 10 μM), the Emax was 10.2%. The EC50 in test [6] (setting [13]) was 1070 nM. For the same compound, in test [6], the “logR [log(τ/KA)] (±SEM) pERK” value was 6.06 (0.02) and the “Time of maximal pERK response” value is given as 4 min. In addition, in test [7], the “Internalisation – pERK Bias factor” value is reported as 2.0, the “cAMP – internalisation Bias factor” value stood at 1.2, the “cAMP – pERK Bias factor” value was found to be 2.4 and the “Between-pathway signalling bias (in words)” value is recorded as “did not demonstrate any indication of between-pathway bias”. Moreover, in test [7], the “Internalisation – pERK ΔΔlogR (±SEM)” value is recorded as 0.31 (0.13), the “cAMP – internalisation ΔΔlogR (±SEM)” value is on record as 0.07 (0.16) and the “cAMP – pERK ΔΔlogR (±SEM)” value is listed as 0.37 (0.10).
